Laboratory results reported in ChEMBL document CHEMBL5465560, “Selectivity Literature for EUbOPEN Chemogenomic Library” (2024).
Values belong to the molecule of their own block, whether it stands above or below them.

Columns and labels:
[1] = target: Tyrosine-protein kinase Lyn (Homo sapiens, UniProt P07948); assay: Selectivity interaction (Ambit KINOMEscan and KiNATiv profiling in Jurkat cells) EUB0000090b LYN; type: cell-based; conditions: at 1 µM
[2] = target: Glycogen synthase kinase-3 beta (Homo sapiens, UniProt P49841); assay: Selectivity interaction (Millipore kinase profiler) EUB0000124b GSK3B; conditions: at 10 µM
Glycogen synthase kinase-3 beta, sequence (P49841 whole entry, looked up): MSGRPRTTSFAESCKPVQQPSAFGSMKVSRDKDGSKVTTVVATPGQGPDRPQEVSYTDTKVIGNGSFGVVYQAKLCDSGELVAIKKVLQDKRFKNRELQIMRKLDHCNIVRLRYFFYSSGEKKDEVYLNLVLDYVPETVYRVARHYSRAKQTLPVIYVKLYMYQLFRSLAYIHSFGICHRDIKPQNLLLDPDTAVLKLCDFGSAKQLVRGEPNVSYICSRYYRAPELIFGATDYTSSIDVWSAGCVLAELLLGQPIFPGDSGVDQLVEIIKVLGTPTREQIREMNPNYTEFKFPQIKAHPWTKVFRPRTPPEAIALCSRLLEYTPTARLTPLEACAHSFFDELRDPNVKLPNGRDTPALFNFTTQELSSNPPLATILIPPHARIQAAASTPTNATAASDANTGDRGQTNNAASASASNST

[3] = target: Death-associated protein kinase 2 (Homo sapiens) (UniProt Q9UIK4); assay: Selectivity interaction (KinomeScan (DiscoverX)) EUB0001619a DAPK2; conditions: at 1 µM
Death-associated protein kinase 2 (Homo sapiens), sequence (Q9UIK4 whole entry, looked up): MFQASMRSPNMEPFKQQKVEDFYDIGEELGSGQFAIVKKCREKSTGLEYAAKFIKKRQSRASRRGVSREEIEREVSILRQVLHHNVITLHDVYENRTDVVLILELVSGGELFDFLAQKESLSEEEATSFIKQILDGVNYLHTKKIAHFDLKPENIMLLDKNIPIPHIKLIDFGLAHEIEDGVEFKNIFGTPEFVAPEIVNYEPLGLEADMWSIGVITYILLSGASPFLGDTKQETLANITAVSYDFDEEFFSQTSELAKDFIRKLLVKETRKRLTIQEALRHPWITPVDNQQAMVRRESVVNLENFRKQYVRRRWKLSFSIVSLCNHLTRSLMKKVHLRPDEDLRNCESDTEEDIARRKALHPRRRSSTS

[4] = target: T1, Mitogen-activated protein kinase kinase kinase 13 (Homo sapiens) (UniProt O43283); assay: Selectivity interaction (KinomeScan (DiscoverX)) EUB0000595a MAP3K13; conditions: at 10 µM
T1 sequence (whole entry): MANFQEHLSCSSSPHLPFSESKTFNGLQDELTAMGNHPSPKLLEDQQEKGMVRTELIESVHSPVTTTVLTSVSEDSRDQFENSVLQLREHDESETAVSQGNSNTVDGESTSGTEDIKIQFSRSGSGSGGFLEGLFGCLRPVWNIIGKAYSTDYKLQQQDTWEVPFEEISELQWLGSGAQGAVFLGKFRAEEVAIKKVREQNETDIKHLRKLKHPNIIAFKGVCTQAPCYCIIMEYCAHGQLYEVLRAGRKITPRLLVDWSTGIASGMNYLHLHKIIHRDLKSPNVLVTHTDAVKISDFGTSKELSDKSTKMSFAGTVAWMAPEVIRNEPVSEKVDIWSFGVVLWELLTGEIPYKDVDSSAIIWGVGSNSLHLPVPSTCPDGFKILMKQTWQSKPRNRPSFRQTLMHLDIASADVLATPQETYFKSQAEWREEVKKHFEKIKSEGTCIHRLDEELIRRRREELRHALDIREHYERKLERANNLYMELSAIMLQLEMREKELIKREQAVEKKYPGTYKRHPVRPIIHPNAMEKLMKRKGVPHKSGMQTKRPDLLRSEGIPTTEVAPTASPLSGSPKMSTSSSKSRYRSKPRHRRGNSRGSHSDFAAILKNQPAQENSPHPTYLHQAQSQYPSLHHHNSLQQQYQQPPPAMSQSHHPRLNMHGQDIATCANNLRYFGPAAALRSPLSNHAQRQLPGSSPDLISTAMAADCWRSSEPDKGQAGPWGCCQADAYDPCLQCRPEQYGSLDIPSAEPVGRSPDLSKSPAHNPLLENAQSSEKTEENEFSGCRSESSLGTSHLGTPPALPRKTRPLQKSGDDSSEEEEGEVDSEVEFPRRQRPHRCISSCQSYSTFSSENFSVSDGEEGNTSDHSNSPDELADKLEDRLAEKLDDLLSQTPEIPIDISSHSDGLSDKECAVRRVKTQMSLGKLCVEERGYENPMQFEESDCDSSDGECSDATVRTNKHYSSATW

[5] = target: T2, Ephrin type-B receptor 2 (Homo sapiens) (UniProt P29323); assay: Selectivity interaction (Kinase panel (Invitrogen)) EUB0000639a EPHB2; conditions: at 200 nM
T2 sequence (whole entry): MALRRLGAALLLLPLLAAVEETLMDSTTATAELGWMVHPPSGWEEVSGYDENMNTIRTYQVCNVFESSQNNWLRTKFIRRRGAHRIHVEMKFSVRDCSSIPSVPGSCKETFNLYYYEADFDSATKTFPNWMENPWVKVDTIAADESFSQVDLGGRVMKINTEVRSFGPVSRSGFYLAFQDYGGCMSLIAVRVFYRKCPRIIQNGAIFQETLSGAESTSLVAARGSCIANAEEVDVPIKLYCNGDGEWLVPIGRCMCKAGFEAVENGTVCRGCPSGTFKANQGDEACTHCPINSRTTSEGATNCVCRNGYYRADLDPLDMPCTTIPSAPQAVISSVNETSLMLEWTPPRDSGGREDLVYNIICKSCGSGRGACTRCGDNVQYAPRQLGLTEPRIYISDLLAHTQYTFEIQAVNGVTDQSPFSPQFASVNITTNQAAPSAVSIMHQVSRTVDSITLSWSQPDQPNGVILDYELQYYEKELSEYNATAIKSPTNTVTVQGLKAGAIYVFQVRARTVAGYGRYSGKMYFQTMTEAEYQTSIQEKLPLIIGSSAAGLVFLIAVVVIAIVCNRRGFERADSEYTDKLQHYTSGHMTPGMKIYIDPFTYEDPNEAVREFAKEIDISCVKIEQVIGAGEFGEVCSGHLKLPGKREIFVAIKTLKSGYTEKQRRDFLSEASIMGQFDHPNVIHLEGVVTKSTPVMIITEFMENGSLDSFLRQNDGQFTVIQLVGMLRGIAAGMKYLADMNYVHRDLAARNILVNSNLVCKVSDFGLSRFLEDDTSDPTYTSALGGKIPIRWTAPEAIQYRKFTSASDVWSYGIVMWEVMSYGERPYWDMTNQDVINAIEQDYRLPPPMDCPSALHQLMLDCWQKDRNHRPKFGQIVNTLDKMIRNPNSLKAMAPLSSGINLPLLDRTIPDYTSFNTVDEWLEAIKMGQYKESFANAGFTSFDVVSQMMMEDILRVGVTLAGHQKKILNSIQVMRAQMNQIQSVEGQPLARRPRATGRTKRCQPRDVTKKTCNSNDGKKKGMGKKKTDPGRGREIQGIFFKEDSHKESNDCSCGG

Tyrosine-protein kinase Lyn, sequence (P07948 2-512 limits assumed): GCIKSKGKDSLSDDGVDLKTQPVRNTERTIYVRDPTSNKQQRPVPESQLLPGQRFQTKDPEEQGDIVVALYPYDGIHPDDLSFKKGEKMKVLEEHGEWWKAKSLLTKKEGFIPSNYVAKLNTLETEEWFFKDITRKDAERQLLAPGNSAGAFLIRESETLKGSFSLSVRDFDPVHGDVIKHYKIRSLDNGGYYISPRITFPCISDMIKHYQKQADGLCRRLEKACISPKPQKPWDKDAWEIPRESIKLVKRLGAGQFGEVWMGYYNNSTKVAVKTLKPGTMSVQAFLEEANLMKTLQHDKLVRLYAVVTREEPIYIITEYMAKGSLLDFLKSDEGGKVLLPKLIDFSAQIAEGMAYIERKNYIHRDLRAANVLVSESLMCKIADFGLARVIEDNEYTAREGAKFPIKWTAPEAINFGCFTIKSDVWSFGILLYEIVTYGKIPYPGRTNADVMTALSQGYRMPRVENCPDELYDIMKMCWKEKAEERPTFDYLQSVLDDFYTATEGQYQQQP

Structure (SMILES): CN(C)C/C=C/C(=O)Nc1ccc(C(=O)N2CCCC(Nc3ncc(Cl)c(-c4c[nH]c5ccccc45)n3)C2)cc1 (stereo not given)
- % of control [1]: 100%

- % of control [2]: 98%
Structure (SMILES): CC(=O)Nc1cccc(-n2c(=O)n(C3CC3)c(=O)c3c(Nc4ccc(I)cc4F)n(C)c(=O)c(C)c32)c1

Structure (SMILES): N#Cc1cccc(-c2c[nH]c3ncnc(N4CCOCC4)c23)c1
- % of control [3]: 100%

Structure (SMILES): COCC(=O)NC/C=C/c1ccc2ncnc(Nc3ccc(Oc4ccc(C)nc4)c(C)c3)c2c1 [CP-724714]
- % of control [4]: 80%

- % of inhibition [5]: 0.413%
Structure (SMILES): CC[C@@H]1[C@H](F)C(=O)N[C@@H]1COc1nccc2cc(C(N)=O)c(OC)cc12 [ZIMLOVISERTIB]
